The text below walks through data of patent US11642413B2, “Compounds for degrading Tau protein aggregates and uses thereof” (Aprinoia Therapeutics Limited, priority 2019, dated 2023).

For series [1], the target named is heparin-induced aggregated Tau (aTau) (Homo sapiens (Human), UniProt P10636). As to the kind of experiment: PBB5 competition assay. Type of series: binding. As to conditions: for Bmax: competition assay with PBB5; for IC50: 0.12 μM aTau, 0.1 μM PBB5, 37° C., 1 hour. As for the experimental part: 1 mM IPTG (Sangon Biotech, Cat. No A100487) was used to induce production of tau by bacteria (BL21, Invitrogen, Cat. No C600003) transformed with a full-length 2N4R tau expression plasmid. After 3 hours, cell pellet was resuspended in lysis buffer (100 mM PIPES, 1 mM EGTA, 1 mM MgSO4, pH 6.8) and lysed by sonication followed by centrifugation (15,000 rpm, 15 min, 4° C.). The supernatant was then placed in a boiling water bath for 20 min, followed by centrifugation (15,000 rpm, 15 min, 4° C.). Supernatant was loaded onto a Q-Sepharose® Fast Flow column (GE healthcare, Cat. No 17-0510-01), the flow-through fraction was loaded onto an SP-Sepharose® Fast Flow column (GE healthcare, Cat. No 17-0729-01), and tau protein was eluted with elution buffer (100 mM PIPES, 1 M NaCl, 1 mM EGTA, 1 mM MgSO4, 0.2 M NaCl, pH 6.8). Collected fractions of tau-containing eluates were pooled, concentrated and dialyzed against HEPES buffer (25 mM HEPES, 0.1 mM EDTA, 0.5 mM DTT, 100 mM NaCl, pH 7.2) and stored at −80° C. in small aliquots until use. Protein concentration was determined by UV absorption.
2 μM of tau prepared in 30 mM Tris-HCl, pH 7.5 buffer was incubated in tube with 15 μM heparin (Sigma, Cat. No H3149) at 37° C. for 24 hours.
2 μM of aTau was diluted to 0.12 μM by […] (pH 6.8) and then incubated with 0.1 μM 2-(4-(2-(methylamino)pyridine-5-yl)-1,3-butadiene-1-yl)benzothiazole-6-ol (PBB5) and serially diluted compound (three-fold serial dilution, from 10 to 0.00017 μM) in a 96-well plate (Corning, Cat. No 3573) at 37° C. for 1 hour. Fluorescence intensity (excitation/emission=530/690 nm) of PBB5 was read by microplate spectrometer (EnSpire 2300, PerkinElmer). Percentage of competition was calculated using the following equation: (Max−well of compound alone)/(Max−Min)*100%, where Max=(Tau+PBB5) signals−(buffer+PBB5) signals; and Min=(buffer+PBB5) signals−(buffer+PBB5) signals.
The IC50 value of each compound was calculated with GraphPad Prism software using the “4 Parameter Logistic Model or Sigmoidal Dose-Response Model”: Y=Bottom+(Top−Bottom)/(1+(IC50/X)^HillSlope)

The nature of series [2]: In vivo pharmacokinetic study of plasma and brain tissue. As to conditions: mice, 1 mg/kg, intravenous. As for the experimental part:
To determine whether the compounds of the present disclosure are capable of crossing the blood brain barrier (BBB), example compound 160313 was administered to mice in a pharmacokinetic study (1 mg/kg, intravenous) of plasma and brain tissue.
Animal Husbandry: Mice were housed at animal room environment with ventilation 15 times/hour, lighting 12 hours/day, temperature 20° C. to 24° C. and humidity 40% to 70%. The study rooms were disinfected and cleaned prior to the start of the study and the operation area was cleaned after each dosing or sampling during the study conduct. All animals had free access to food and water during the study. The animals had access to Certified Rodent Diet and water ad libitum. The nutritional composition and levels of contaminants of the diet and impurities and contaminants of the water were monitored by third organization. The health status of the animals was evaluated in accordance with accepted animal husbandry procedures and deemed suitable for experimental use.
Sample Collection & Processing: Approximately 110 μL of whole blood were collected from all animals via facial or cardiac puncture under anesthesia with Isoflurane into test tubes containing potassium ethylenediaminetetraacetate (K2EDTA) at 0.25, 0.5, 1, 2, 4, 8 and 24 hr post dose. Brian samples were collected at 0.25, 0.5, 1, 2, 4, 8 and 24 hours post dose. A perfusion with pre-cold saline will be conducted via cardiac puncture before brain collection. Blood samples were centrifuged at 2000 g at 4° C. for 5 minutes to obtain plasma samples by transferring the supernatants into new tubes. All plasma and brain samples were stored at approximately −70° C. until analysis.
Bioanalytical Method Development: The concentrations of compound in plasma and brain samples were determined using a liquid chromatography with tandem mass spectrometry (LC-MS/MS) based method.

In series [3] the target is heparin-induced aggregated Tau (aTau), full-length 2N4R tau (Homo sapiens (Human), UniProt P10636). Briefly: In vitro fluorometric aTau binding assay. As to conditions: 0.04 μM aTau, 37° C., 1 hour, fluorescence intensity. Here is the method: 1 mM IPTG (Sangon Biotech, Cat. No A100487) was used to induce production of tau by bacteria (BL21, Invitrogen, Cat. No C600003) transformed with a full-length 2N4R tau expression plasmid. After 3 hours, cell pellet was resuspended in lysis buffer (100 mM PIPES, 1 mM EGTA, 1 mM MgSO4, pH 6.8) and lysed by sonication followed by centrifugation (15,000 rpm, 15 min, 4° C.). The supernatant was then placed in a boiling water bath for 20 min, followed by centrifugation (15,000 rpm, 15 min, 4° C.). […] Protein concentration was determined by UV absorption. […]
2 μM aTau was diluted to 0.04 μM with 30 mM Tris-HCl (pH 6.8), and then incubated with serially diluted compound (three-fold serial dilutions, from 10 to 0.00017 μM) in a 96-well plate (Corning, Cat. No 3573) at 37° C. for 1 hour. Fluorescence intensity (excitation/emission=370/500 nm) of APN-0729 was read by microplate spectrometer (EnSpire 2300, PerkinElmer). Compound Kd values were calculated using the following equation: Y=Bmax*X/(Kd+X), where X is the concentration of compound; Y is the fluorescence signal of (compound+aTau)−(compound+DMSO); and Bmax is the maximum signal.

heparin-induced aggregated Tau (aTau), sequence (P10636 other isoform, or with tags, fused parts or gaps): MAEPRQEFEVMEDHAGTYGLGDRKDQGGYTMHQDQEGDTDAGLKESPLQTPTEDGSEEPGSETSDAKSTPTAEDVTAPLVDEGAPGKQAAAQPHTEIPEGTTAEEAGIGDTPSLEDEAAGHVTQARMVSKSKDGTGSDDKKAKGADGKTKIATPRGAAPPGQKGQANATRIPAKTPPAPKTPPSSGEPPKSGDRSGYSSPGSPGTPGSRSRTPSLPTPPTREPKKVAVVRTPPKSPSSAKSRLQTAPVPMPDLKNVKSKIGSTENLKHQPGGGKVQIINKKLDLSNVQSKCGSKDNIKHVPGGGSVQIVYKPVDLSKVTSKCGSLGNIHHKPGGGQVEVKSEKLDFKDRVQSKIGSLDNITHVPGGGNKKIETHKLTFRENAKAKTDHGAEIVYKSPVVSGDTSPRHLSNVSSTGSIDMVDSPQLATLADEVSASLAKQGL
heparin-induced aggregated Tau (aTau), full-length 2N4R tau, sequence (P10636 other isoform, or with tags, fused parts or gaps): as above

Take `CN(C)c1ccc(-c2ccc(-c3nc4ccc(NCCOCCOCCOCCOCCOCCOc5ccc6c(c5)C(=O)N(C5CCC(=O)NC5=O)C6=O)cc4s3)cc2)cn1` (stereo not drawn) [Compound 159985, 2-[2,6-bis(oxo)piperidin-3-yl]-5-[2-[2-[2-[2-[2-[2-[[2-[4-[6-(dimethylamino)-pyridin-3-yl]phenyl]-1,3-benzothiazol-6-yl]amino]ethoxy]ethoxy]ethoxy]ethoxy]ethoxy]-ethoxy]isoindole-1,3-dione]: the Bmax in series [1] was found to be 71%.

In the case of `CN(C)c1ccc(-c2ccc(-c3nc4ccc(NCCOCCOc5ccc6c(c5)C(=O)N(C5CCC(=O)NC5=O)C6=O)cc4s3)cc2)cn1` (stereo not drawn) [Compound 160219, 2-[2,6-bis(oxo)piperidin-3-yl]-5-[2-[2-[[2-[4-[6-(dimethylamino)pyridin-3-yl]phenyl]-1,3-benzothiazol-6-yl]amino]ethoxy]ethoxy]isoindole-1,3-dione], the Bmax in series [1] was 69%.

In series [1], `CN(C)c1ccc(-c2ccc(-c3nc4ccc(NCCOCCOCCOCCOCCOCCOc5ccc6c(c5)CN(C5CCC(=O)NC5=O)C6=O)cc4s3)cc2)cn1` (stereo not drawn) [Compound 160273, 3-[6-[2-[2-[2-[2-[2-[2-[[2-[4-[6-(dimethylamino)pyridin-3-yl]phenyl]-1,3-benzothiazol-6-yl]-amino]ethoxy]ethoxy]ethoxy]ethoxy]-ethoxy]ethoxy]-3-oxo-1H-isoindol-2-yl]piperidine-2,6-dione] showed a Bmax of 59%.

Regarding `CN(C)c1ccc2nc(-c3ccc(-c4ccc(NCCOCCOCCOCCOCCOCCOc5ccc6c(c5)C(=O)N(C5CCC(=O)NC5=O)C6=O)nc4)cc3)sc2c1` (stereo not drawn) [Compound 160275, 2-[2,6-bis(oxo)piperidin-3-yl]-5-[2-[2-[2-[2-[2-[2-[[5-[4-[6-(dimethylamino)-1,3-benzothiazol-2-yl]phenyl]pyridin-2-yl]amino]ethoxy]ethoxy]-ethoxy]ethoxy]ethoxy]ethoxy]isoindole-1,3-dione], the Bmax in series [1] turned out to be 96%.

`CN(C)c1ccc(-c2ccc(-c3nc4ccc(NCCOCCOc5ccc6c(c5)CN(C5CCC(=O)NC5=O)C6=O)cc4s3)cc2)cn1` (stereo not drawn) [Compound 160313, 3-[6-[2-[2-[[2-[4-[6-(dimethylamino)pyridin-3-yl]phenyl]-1,3-benzothiazol-6-yl]amino]ethoxy]ethoxy]-3-oxo-1H-isoindol-2-yl]piperidine-2,6-dione] showed a Bmax in series [1] of 64%. Further, the BBB penetration entry in series [2] is reported as “able to penetrate BBB in short period of time”. For the same molecule, the Kp in series [2] (mouse, brain/plasma, read-out: brain/plasma ratio) was roughly 0.31. In addition, in series [2] (mouse, Brain), the AUC(0-t) worked out at 117 ng·h/mL, the concentration peaked (Cmax) at 111 ng/mL, the time to peak (Tmax) was 15 min and the half-life was 61.8 min. Besides, in series [2] (mouse, Plasma), the AUC(0-t) was 379 ng·h/mL and the half-life was 27.6 min.

In series [1], `CN(C)c1ccc2nc(-c3ccc(-c4ccc(NCCOCCOCCOCCOCCOCCOc5ccc6c(c5)CN(C5CCC(=O)NC5=O)C6=O)nc4)cc3)sc2c1` (stereo not drawn) [Compound 160383, 3-[6-[2-[2-[2-[2-[2-[2-[[5-[4-[6-(dimethylamino)-1,3-benzothiazol-2-yl]-phenyl]pyridin-2-yl]amino]ethoxy]ethoxy]ethoxy]ethoxy]-ethoxy]ethoxy]-3-oxo-1H-isoindol-2-yl]piperidine-2,6-dione] had a Bmax of 80%.

`CN(C)c1ccc(-c2ccc(-c3cn4cc(OCCOCCN5C(=O)CCC(N6C(=O)c7ccc(O)cc7C6=O)C5=O)ccc4n3)cc2)c(F)n1` (stereo not drawn) [Compound 160570]: in series [3], the affinity, expressed as Kd, was 360 nM. In series [1], the IC50 was 2260 nM and the Bmax entry is “=100%”.

For `CN(C)c1ccc2nc(-c3ccc(-c4ccc(NCCOCCN5C(=O)CCC(N6C(=O)c7ccc(O)cc7C6=O)C5=O)nc4)cc3)sc2c1` (stereo not drawn) [Compound 160703], in series [3], the Kd turned out to be 100 nM. Besides, in series [1], the IC50 was determined as 1000 nM and the Bmax result is reported as “=100%”.

In turn, `CN(C)c1ccc(-c2ccc(-c3cn4cc(OCCOCCOCCOCCOCCOCCOc5ccc6c(c5)C(=O)N(C5CCC(=O)NC5=O)C6=O)ccc4n3)cc2)c(F)n1` (stereo not drawn) [Compound 160744, 2-[2,6-bis(oxo)piperidin-3-yl]-5-[2-[2-[2-[2-[2-[2-[2-[4-[6-(dimethyl-amino)-2-fluoro-pyridin-3-yl]phenyl]imidazo[1,2-a]pyridin-6-yl]oxyethoxy]ethoxy]ethoxy]-ethoxy]ethoxy]ethoxy]isoindole-1,3-dione] had a Bmax in series [1] of 113%.
